Measured values as given in patent publication US10294202B2, “Pyrrolidinones as herbicides” (FMC Corporation, priority 2013, dated 2019).

How the values were obtained:
kochia = assay: Test A pre-/postemergence herbicide test; type: in vivo, Kochia scoparia
Procedure, shortened: (§1)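 Greenhouse pot test with pre- and postemergence application of surfactant-containing solvent formulations. Postemergence plants were 2–10 cm, one- to two-leaf stage. Response scored visually after ~10 days, 0 (no effect) to 100 (complete control).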

ryegrass, Italian = assay: Test A pre-/postemergence herbicide test; type: in vivo, Lolium multiflorum
Procedure, shortened: as §1

[1] = Postemergence, 125 g ai/ha, visual rating on 0 to 100 scale (0 no effect, 100 complete control), approx. 10 days
[2] = Postemergence, 500 g ai/ha, 0 to 100 scale (0 no effect, 100 complete control)
[3] = Preemergence, 125 g ai/ha, 0 to 100 scale where 0 is no effect and 100 is complete control
[4] = Preemergence, 500 g ai/ha, visual rating on 0 to 100 scale (0 no effect, 100 complete control)
[5] = 125 g ai/ha, visual rating, 0 to 100 scale, 0 no effect, 100 complete control, approximately 10 days, preemergence
[6] = Postemergence, 125 g ai/ha, 0 to 100 scale, 0 is no effect, 100 is complete control
[7] = preemergence, 500 g ai/ha, 0 to 100 scale, 0 is no effect and 100 is complete control
[8] = Postemergence, 125 g ai/ha, 0 to 100 scale, 0 no effect, 100 complete control
[9] = preemergence, 500 g ai/ha, 0 to 100 scale

SMILES: O=C1NCC(c2cccc(C(F)(F)F)c2)C1C(=O)Nc1ccc(F)c(F)c1F (stereo not drawn) [Compound 315]
- Plant response rating, Kochia (kochia; [1]): 50
- Plant response rating, Kochia (kochia; [2]): 70
- Plant response rating, Kochia (kochia; [3]): 40
- Kochia plant response rating (kochia; [4]): 60
- Plant response rating, Ryegrass, Italian (ryegrass, Italian; [1]): 20
- Plant response rating, Ryegrass, Italian (ryegrass, Italian; [2]): 50
- Plant response rating, Ryegrass, Italian (ryegrass, Italian; [3]): 40
- Ryegrass, Italian plant response rating (ryegrass, Italian; [4]): 70

SMILES: CN1CC(c2ccc(C(F)(F)F)cc2)C(C(=O)Nc2ccccc2F)C1=O (stereo not drawn) [Compound 304]
- Plant response rating, Kochia (kochia; [1]): 10
- Plant response rating, Kochia (kochia; [2]): 80
- Kochia plant response rating (kochia; [4]): 70
- Plant response rating, Ryegrass, Italian (ryegrass, Italian; [1]): 50
- Plant response rating, Ryegrass, Italian (ryegrass, Italian; [2]): 50
- Plant response rating, Ryegrass, Italian (ryegrass, Italian; [3]): 0
- Ryegrass, Italian plant response rating (ryegrass, Italian; [4]): 0

SMILES: O=C1NCC(c2ccc(C(F)(F)F)cc2)C1C(=O)Nc1ccccc1Cl (stereo not drawn) [Compound 233]
- Plant response rating, Kochia (kochia; [5]): 50
- Plant response rating, Kochia (kochia; [6]): 60
- Kochia plant response rating (0 to 100 scale, 0 is no effect, 100 is complete control) (kochia; Postemergence, 500 g ai/ha): 80
- Plant response rating, Kochia (kochia; [7]): 80
- Plant response rating, Ryegrass, Italian (ryegrass, Italian; [5]): 30
- Plant response rating, Ryegrass, Italian (ryegrass, Italian; [6]): 20
- Ryegrass, Italian plant response rating (0 to 100 scale, 0 is no effect, 100 is complete control) (ryegrass, Italian; Postemergence, 500 g ai/ha): 40
- Plant response rating, Ryegrass, Italian (ryegrass, Italian; [7]): 60

SMILES: Cc1cccc(NC(=O)C2C(=O)NCC2c2cccc(C(F)(F)F)c2)c1 (stereo not drawn) [Compound 317]
- Plant response rating, Kochia (kochia; [1]): 0
- Plant response rating, Kochia (kochia; [2]): 0
- Plant response rating, Kochia (kochia; [3]): 0
- Kochia plant response rating (kochia; [4]): 0
- Plant response rating, Ryegrass, Italian (ryegrass, Italian; [1]): 0
- Plant response rating, Ryegrass, Italian (ryegrass, Italian; [2]): 0
- Plant response rating, Ryegrass, Italian (ryegrass, Italian; [3]): 0
- Ryegrass, Italian plant response rating (ryegrass, Italian; [4]): 0

SMILES: O=C1NCC(c2cccc(C(F)(F)F)c2)C1C(=O)Nc1ccccc1Cl (stereo not drawn) [Compound 312]
- Plant response rating, Kochia (kochia; [1]): 20
- Plant response rating, Kochia (kochia; [2]): 40
- Plant response rating, Kochia (kochia; [3]): 20
- Kochia plant response rating (kochia; [4]): 70
- Plant response rating, Ryegrass, Italian (ryegrass, Italian; [1]): 20
- Plant response rating, Ryegrass, Italian (ryegrass, Italian; [2]): 40
- Plant response rating, Ryegrass, Italian (ryegrass, Italian; [3]): 20
- Ryegrass, Italian plant response rating (ryegrass, Italian; [4]): 60

SMILES: O=C1NCC(c2cccc(Br)c2)C1C(=O)Nc1ccccc1F (stereo not drawn) [Compound 307]
- Plant response rating, Kochia (kochia; [1]): 0
- Plant response rating, Kochia (kochia; [2]): 0
- Plant response rating, Kochia (kochia; [3]): 0
- Kochia plant response rating (kochia; [4]): 0
- Plant response rating, Ryegrass, Italian (ryegrass, Italian; [1]): 0
- Plant response rating, Ryegrass, Italian (ryegrass, Italian; [2]): 0
- Plant response rating, Ryegrass, Italian (ryegrass, Italian; [3]): 0
- Ryegrass, Italian plant response rating (ryegrass, Italian; [4]): 0

SMILES: O=C1NCC(c2ccc(F)cc2)C1C(=O)Nc1cccc(F)c1F (racemic) [Compound 119]
- Plant response rating, Kochia (kochia; [5]): 40
- Plant response rating, Kochia (kochia; [8]): 40
- Kochia plant response rating (0 to 100 scale, 0 is no effect, 100 is complete control) (kochia; Postemergence, 500 g ai/ha): 50
- Plant response rating, Kochia (kochia; [9]): 60
- Plant response rating, Ryegrass, Italian (ryegrass, Italian; [5]): 20
- Plant response rating, Ryegrass, Italian (ryegrass, Italian; [8]): 20
- Ryegrass, Italian plant response rating (0 to 100 scale, 0 is no effect, 100 is complete control) (ryegrass, Italian; Postemergence, 500 g ai/ha): 40
- Plant response rating, Ryegrass, Italian (ryegrass, Italian; [9]): 60

SMILES: O=C1NCC(c2cccc(C(F)F)c2)C1C(=O)Nc1cccc(F)c1F (racemic) [Compound 211]
- Plant response rating, Kochia (kochia; [5]): 40
- Plant response rating, Kochia (kochia; [6]): 40
- Kochia plant response rating (0 to 100 scale, 0 is no effect, 100 is complete control) (kochia; Postemergence, 500 g ai/ha): 60
- Plant response rating, Kochia (kochia; [7]): 70
- Plant response rating, Ryegrass, Italian (ryegrass, Italian; [5]): 0
- Plant response rating, Ryegrass, Italian (ryegrass, Italian; [6]): 30
- Ryegrass, Italian plant response rating (0 to 100 scale, 0 is no effect, 100 is complete control) (ryegrass, Italian; Postemergence, 500 g ai/ha): 60
- Plant response rating, Ryegrass, Italian (ryegrass, Italian; [7]): 40
